The ΔTm is the shift of the melting midpoint relative to a reference.

Test [1] is described as follows: Binding affinity to 5'-CTAACTGAATG-3'/3'-GATTGTCTTAC-5' duplex DNA (unknown origin) in sodium cacodylate buffer assessed as change in melting temperature at 10 uM at pH 7.
The nature of test [2]: Binding affinity to 5'-CTAACTGAATG-3'/3'-GATTGCCTTAC-5' duplex DNA (unknown origin) in sodium cacodylate buffer assessed as change in melting temperature at 10 uM at pH 7.
Test [3] is described as follows: Binding affinity to 5'-CTAACTGAATG-3'/3'-GATTGGCTTAC-5' duplex DNA (unknown origin) in sodium cacodylate buffer assessed as change in melting temperature at 10 uM at pH 7.
Test [4] is described as follows: Binding affinity to 5'-CTAACAGAATG-3'/3'-GATTGACTTAC-5' duplex DNA (unknown origin) in sodium cacodylate buffer assessed as change in melting temperature at 10 uM at pH 7.
Test [5] can be described thus: Binding affinity to 5'-CTAACAGAATG-3'/3'-GATTGCCTTAC-5' duplex DNA (unknown origin) in sodium cacodylate buffer assessed as change in melting temperature at 10 uM at pH 7.
Test [6] is described as follows: Binding affinity to 5'-CTAACAGAATG-3'/3'-GATTGGCTTAC-5' duplex DNA (unknown origin) in sodium cacodylate buffer assessed as change in melting temperature at 10 uM at pH 7.
A short description of test [7]: Binding affinity to 5'-CTAACCGAATG-3'/3'-GATTGCCTTAC-5' duplex DNA (unknown origin) in sodium cacodylate buffer assessed as change in melting temperature at 10 uM at pH 7.
Test [8] is described as follows: Binding affinity to 5'-CTAACGGAATG-3'/3'-GATTGGCTTAC-5' duplex DNA (unknown origin) in sodium cacodylate buffer assessed as change in melting temperature at 10 uM at pH 7.
Test [9] in a line: Binding affinity to 5'-CTAACTGAATG-3'/3'-GATTGACTTAC-5' duplex DNA (unknown origin) in sodium cacodylate buffer assessed as change in melting temperature at 10 uM at pH 7.
A short description of test [10]: Binding affinity to 5'-CTAACCGAATG-3'/3'-GATTGGCTTAC-5' duplex DNA (unknown origin) in sodium cacodylate buffer assessed as change in melting temperature at 10 uM at pH 7.
Test [11] is described as follows: Binding affinity to 5'-TCCAG_GCAAC-3'/3'-AGGTCACGTTG-5' duplex DNA (unknown origin) in sodium cacodylate buffer assessed as change in melting temperature at 20 uM at pH 7.
Test [12] can be described thus: Binding affinity to 5'-TCCAG_GCAAC-3'/3'-AGGTCTCGTTG-5' duplex DNA (unknown origin) in sodium cacodylate buffer assessed as change in melting temperature at 20 uM at pH 7.
Test [13] can be described thus: Binding affinity to 5'-TCCAG_GCAAC-3'/3'-AGGTCCCGTTG-5' duplex DNA (unknown origin) in sodium cacodylate buffer assessed as change in melting temperature at 20 uM at pH 7.
Test [14] in a line: Binding affinity to 5'-TCCAG_GCAAC-3'/3'-AGGTCGCGTTG-5' duplex DNA (unknown origin) in sodium cacodylate buffer assessed as change in melting temperature at 20 uM at pH 7.
A short description of test [15]: Binding affinity to 5'-TCCAGGCAAC-3'/3'-AGGTCCGTTG-5' duplex DNA (unknown origin) in sodium cacodylate buffer assessed as change in melting temperature at 20 uM at pH 7.
Test [16] can be described thus: Binding affinity to 5'-GCTAAGCCAATGA-3'/3'-CGATTCCGTTACT-5' duplex DNA (unknown origin) assessed as change in melting temperature.
Test [17] is described as follows: Binding affinity to 5'-GCTAAGCTAATGA-3'/3'-CGATTCCATTACT-5' duplex DNA (unknown origin) assessed as change in melting temperature.
A short description of test [18]: Binding affinity to 5'-GCTAACCCAATGA-3'/3'-CGATTGCGTTACT-5' duplex DNA (unknown origin) assessed as change in melting temperature.
The nature of test [19]: Binding affinity to 5'-GCTAAGCAAATGA-3'/3'-CGATTCCTTTACT-5' duplex DNA (unknown origin) assessed as change in melting temperature.
The nature of test [20]: Binding affinity to 5'-GCTAAACTAATGA-3'/3'-CGATTTCATTACT-5' duplex DNA (unknown origin) assessed as change in melting temperature.
Test [21] is described as follows: Binding affinity to 5'-GCTAAACAAATGA-3'/3'-CGATTTCTTTACT-5' duplex DNA (unknown origin) assessed as change in melting temperature.
The nature of test [22]: Binding affinity to 5'-GCTAACCTAATGA-3'/3'-CGATTGCATTACT-5' duplex DNA (unknown origin) assessed as change in melting temperature.
Test [23] is described as follows: Binding affinity to 5'-GCTAATCAAATGA-3'/3'-CGATTACTTTACT-5' duplex DNA (unknown origin) assessed as change in melting temperature.
Test [24] is described as follows: Binding affinity to 5'-GCTAACCAAATGA-3'/3'-CGATTGCTTTACT-5' duplex DNA (unknown origin) assessed as change in melting temperature.
The nature of test [25]: Binding affinity to 5'-GCTAACCGAATGA-3'/3'-CGATTGCCTTACT-5' duplex DNA (unknown origin) assessed as change in melting temperature.
Test [26] can be described thus: Binding affinity to 5'-CTAACCGAATG-3'/3'-GATTGCCTTAC-5' duplex DNA (unknown origin) in sodium cacodylate buffer assessed as change in melting temperature at pH 7.

Consider `O=C(CCNCCC(=O)Nc1ccc2ccc3cccnc3c2n1)Nc1ccc2ccccc2n1`, for which the ΔTm is 1.5 °C in test [1]; 2.3 °C in [2]; 0.1 °C in [3]; 0 °C in [4]; 0.4 °C in [5]; -0.2 °C in test [6]. Besides, the ΔTm is 2.6 °C in test [7], 0.3 °C in [8], -0.1 °C in [9] and 0.3 °C in test [10].
On to `NCCC(=O)Nc1ccc2ccc3cccnc3c2n1`, for which the ΔTm in test [11] was 3.4 °C; in [12], 3.6 °C; in test [13], 6 °C; in [14] it was 3 °C; in test [15], 0.2 °C; in test [1] it was 1.3 °C. The ΔTm in test [2] worked out at 0.4 °C; in test [3], 1.3 °C; in test [4], 1.3 °C; in test [5], 0.5 °C; in test [6], 1.2 °C; in [7], 1.6 °C. The ΔTm in test [8] worked out at 0.8 °C; in test [9] it was 0.9 °C; in test [10], 0.6 °C.
For the compound `O=C(CCNCCC(=O)Nc1ccc2ccc3cccnc3c2n1)Nc1ccc2ccc3cccnc3c2n1`, the ΔTm in [1] was found to be 1.4 °C; in test [2], 4.4 °C; in test [3], 0.3 °C; in [4], 2.1 °C; in [5], 4.4 °C; in test [6], 1.5 °C. Besides, the ΔTm in [7] is 7.8 °C; in test [8], 1.4 °C; in [9] it was 0.4 °C; in test [10], 0.3 °C; in test [16], 6.5 °C; in [17] it was 5.6 °C. Further, the shift in melting temperature (ΔTm) in [18] was determined as 4.7 °C; in test [19], 4.2 °C; in test [20], 5.7 °C; in test [21], 4 °C; in [22], 5.6 °C; in test [23], 4.4 °C. For the same compound, the ΔTm in [24] stood at 3.8 °C; in test [25] it was 4 °C. In addition, the Activity result in test [26] is “Dose-dependent effect”.
As for `O=C(CCNCCC(=O)Nc1ccc2ccccc2n1)Nc1ccc2ccccc2n1`, the ΔTm was 0.2 °C in [1]; 0.7 °C in test [2]; -0.5 °C in test [3]; -0.5 °C in test [4]; 1.6 °C in test [5]; -0.4 °C in test [6]. Further, the ΔTm was 2.6 °C in [7], -0.2 °C in [8], -0.1 °C in [9] and 0.2 °C in test [10].

The record behind these values is ChEMBL document CHEMBL3400117, “2-Aminophenanthroline dimer stabilized the C-C mismatched duplex DNA” (Bioorg Med Chem, 2015).
